Literature values in PMC13603578, “Biopriming with Schizophyllum commune Polysaccharides Modulates Antioxidant and Biochemical Responses in Pisum sativum L. Seedlings” (Antioxidants, 2026).

Set-up: method as in PMID 26205049
Settings: under the tested conditions

liquiritigenin
DPPH radical-scavenging inhibition: exceeding 65%
